Experimental data reported in a melting point compilation (Tetko et al.; mined from patent text by program, amines drawn as free bases though some values may be those of a salt).

Structure (SMILES) | melting point
COc1ccc(-c2csc(NC(=O)C(=O)OCCc3ccccc3)n2)cc1 | 165 to 167 °C
O=[N+]([O-])c1ccc2c(c1)COCC2 | 96 to 98 °C
CCOC(=O)c1ccc(N=C(Nc2ccc(C(=O)OCC)cc2)c2ccc(C)cc2)cc1 | 246 to 260 °C
O=C1N(Cc2noc(C3CC3)n2)c2cccc(Cl)c2C12COc1cc3c(cc12)OCO3 (stereo unspecified) | 180 to 182 °C
Cc1[nH]c2ccc(CCN3CCCC3)cc2c1C(=O)OCc1ccccc1 | 76 to 78 °C
CC(C)=NNc1nc(Cl)c(-c2c(F)cc(F)cc2F)c(NC(C)C(F)(F)F)n1 (stereo unspecified) | 157 to 159 °C
O=C(c1cccc(C(F)(F)F)c1)c1cc2cccc(Br)c2s1 | 135 to 136 °C
CNC(=O)C(=NOC)c1ccccc1COc1ncc(Sc2ccccc2)cc1Cl | 84 to 86 °C
COc1nc(C(F)(F)F)cc(=O)n1-c1cc(C(=O)OC(C)C)c(Cl)cc1F | 121 to 123 °C
Cc1cnc(-c2cc3c(OC[C@@H](O)CN4CCC(c5ccc6ccccc6c5)CC4)cccc3s2)o1 | 138 to 139 °C
Cc1ccc(S(=O)(=O)OCC2Cc3cccc(-c4ccccc4C)c3O2)cc1 (stereo unspecified) | 98 to 100 °C
CCCCCCCCCCCCCCOc1ccc(C(N)=O)cc1 | 128 to 130 °C
O=C(N[C@H](Cc1ccc(C(F)(F)F)cc1)[C@@H](O)c1cccc2ccccc12)C1CCCCC1 (racemic) | 156 to 157 °C
COc1ccc(C(=O)Nc2ccccc2)cc1NCc1cc(F)cc(F)c1 | 175 to 177 °C
CC(=O)Nc1csc(-c2ccc3c(=O)n(CC(C)C)c(CNC(=O)OC(C)(C)C)c(-c4ccccc4)c3c2)n1 | 227 to 228 °C
COc1ccccc1C=C1NC(=O)NC1=O | 174 to 179 °C

Structure (SMILES) | melting point
COc1ccc(Br)c2c1C1C(=O)N(C)C(=O)C1CC2 (stereo unspecified) | 201 to 202 °C
O=Cc1cccc(NC(=O)NC2N=C(c3ccccc3F)c3ccccc3N(CC(=O)N3CC4CCC(CC4)C3)C2=O)c1 (racemic) | 164 to 182 °C
O=C1O[C@@H](CO)CN1c1ccc(Br)cn1 | 123 to 124 °C
O=C(NCC(=O)N1c2ccccc2N(Cc2ccccc2)C(=O)[C@H]2CCC[C@H]21)c1ccc2c(c1)OCO2 (relative stereo) | 174 to 176 °C
Clc1ccc(Cn2ccc3cc(OCc4nnn[nH]4)ccc32)cc1 | 162 to 163 °C
Oc1cc(OCc2ccccc2)cc(OCc2ccccc2)c1C/C=C/c1ccccc1 | 76 to 78 °C
COc1cc(C(=O)NS(=O)(=O)c2ccccc2C)ccc1Cc1cn(C)c2ccc(CCNC(=O)N3CCOCC3)cc12 | 125 to 133 °C
C[C@H](CSC(=O)c1ccccc1)C(=O)N1C(=O)N(C)C[C@H]1C(=O)OC(C)(C)C | 128 °C
CC=CCNc1cc(C(=O)O)cc(S(N)(=O)=O)c1Oc1ccc(NC(C)=O)cc1 | 255 to 257 °C
CCCN1CC=C(c2ccc(Cl)cc2)C(C(=O)OCc2ccccc2)C1 (stereo unspecified) | 75 to 76.5 °C
O=C1OC(=O)C2CC3=C(CC3)CC12 (stereo unspecified) | 81 to 83 °C
CC(C)c1ccc(C(=O)C2=C(O)C(=O)N(c3ncc(S(=O)(=O)c4ccc([N+](=O)[O-])cc4)s3)C2c2ccc(OC(F)(F)F)cc2)cc1 (stereo unspecified) | 276 to 278 °C
COC(=O)c1cc(CC(C)NCC(O)c2ccc(O)c(CO)c2)ccc1O (stereo unspecified) | 65 to 69 °C
CCN(CC)C(=O)CNc1cc(N)ccc1OC | 111 °C
COC(=O)C(Cc1cccc(C2(OC)CCOCC2)c1)c1nc(-c2ccccc2)c(-c2ccc(S(N)(=O)=O)cc2)o1 (stereo unspecified) | 88.7 to 94.9 °C
Nc1cc2c(cc1C(=O)c1ccccc1Cl)CCC2 | 90 to 92 °C

Next, values leading:

melting point | Structure (SMILES)
167 to 170 °C | OCc1c(F)cccc1NC1CCN(Cc2ccccc2)CC1
121 to 122 °C | Cc1cccc(C)c1N(CC(C)O)C(=O)c1ccccc1 (stereo unspecified)
122 to 124 °C | CCCCNC(=O)Oc1ccc(Oc2ccc([N+](=O)[O-])cc2)cc1
78 to 79 °C | CC(=O)OCC1C(C(=O)O)C1(C)C (stereo unspecified)
162 to 163 °C | COc1cc(C(=O)O)ccc1Cc1cn(C)c2ccc(CC(C)NC(=O)N(C)C)cc12 (stereo unspecified)
241 to 243 °C | CCc1cc(=O)oc2cc(O)cc(O)c12
39 to 40 °C | COC(=O)[C@@H](C)Nc1ncccc1[N+](=O)[O-]
88 °C | CCOC(=O)C1=C(N(C)C)N=C(C)C(C(=O)OCC)C1c1ccccc1C (stereo unspecified)
192 to 193 °C | NC1=NS(=O)N=C1NCCCN(Cc1ccccn1)c1ccccn1 (stereo unspecified)
232 to 233 °C | CN1CCN(c2cccc(NC(=O)c3ccc(-c4ccncc4)cc3)c2)CC1
74 to 75.5 °C | CC1Cc2cc3c(cc2C1=O)C(C)(C)CCC3(C)C (stereo unspecified)
110 °C | CN(C)CC1Cc2c(n(C)c3ccc(O)cc23)C1 (stereo unspecified)
51 to 54 °C | CC12C=CCC1C1CCC3CC(=O)CCC3C1CC2 (stereo unspecified)
69 to 74.5 °C | C[Si](C)(C)NS(C)(=O)=O
270 °C | O=C1Nc2c(ccc3c2CCNC3)C1=O
153 to 157 °C | COC1=Cc2c(c(=O)[nH]c3ccc(OC)cc23)[C@@H](C)C1
151 to 152 °C | N=C(c1ccc(Cl)cc1)c1cc2ccccc2cn1
184 to 186 °C | COc1ccccc1Nc1nc2c(-c3ccc(C(F)(F)F)cc3)cccn2n1
78 to 79 °C | COC(=O)c1nc(Cl)cc(N)c1OC
244 to 246 °C | Cc1[nH]c2ccccc2c1C[C@@H](N)C(=O)O

melting point | Structure (SMILES)
238 °C | CCOC(=O)c1cn2c3c(c(F)c(F)cc3c1=O)OCC2COC (stereo unspecified)
178 to 181 °C | Cc1nc2cnccc2n1-c1ccc(C=Cc2cccc(OCc3nc4cc(F)ccc4s3)c2)cc1
145 to 147 °C | CCn1nc(C)c2c1C1=NC(C)CN1C(C)=N2 (stereo unspecified)
222 °C | CCC(=O)OC(c1nc2c(C(F)(F)F)cccc2c(O)c1C(=O)Nc1nccs1)C(C)C (stereo unspecified)
205 to 207 °C | COC(=O)c1cc2ccc(C(=O)NC(CO)CO)cc2[nH]1
111 to 113 °C | NC(=O)N(O)Cc1sccc1Sc1ccc(Cl)cc1
133 to 135 °C | CC(O)Cn1cc(C2=C(c3cn(CC(C)O)c4ccccc34)C(=O)NC2=O)c2ccccc21 (stereo unspecified)
122 to 124 °C | COc1ccc(C(c2ccc(OC)cc2)c2cnccc2C(=O)O)cc1
165 to 167 °C | O=C(c1cc(Cl)ccc1NC(c1ccccc1)(c1ccccc1)c1ccccc1)C(F)(F)F
109 to 112 °C | Cc1ccc(S(=O)(=O)n2ccc3c(OCC4CO4)cccc32)cc1 (stereo unspecified)
228 °C | N#Cc1cnc(Nc2ccc(OCCn3cnnc3)cc2)nc1-c1cccs1
107 to 108 °C | CCOC(=O)c1cc(=O)c2ccc(OCCCCl)cc2o1
185 to 189 °C | CN(C)CCCn1c2ccc(O)cc2c2c3c(c(-c4ccccc4)cc21)C(=O)NC3=O
151 to 152 °C | CCO/N=C1\CCc2ccccc2C1=Cc1ccc(S(C)(=O)=O)cc1
170 to 173 °C | O=C(OCc1ccc[nH]c1=O)c1ccc(F)cc1
91 to 92 °C | CC(C)(C)OC(=O)Nc1cc(Cl)cc(C(F)(F)F)c1
162 °C | C=CCOc1cc(C(O)CS(C)(=O)=O)cc(OCC=C)c1NC(C)=O (stereo unspecified)
226 to 227 °C | O=C1NCCN1c1ccc(S(=O)(=O)Oc2ccc3[nH]ccc3c2)cc1
94.5 to 101 °C | O=C(O)CCCNC(=O)C(CS)Cc1ccccc1 (stereo unspecified)
